The values that follow are results of earlier work, collected in patent US20180153872A1, “HETEROARYL CARBONITRILES FOR THE TREATMENT OF DISEASE” (OPKO Health, Inc., priority 2015, published 2018).

A word on the Ki: it is a dissociation constant, usually derived from enzyme kinetics or from competition with a known ligand.

Chain of NK1 receptor (P25103 whole entry, species assumed): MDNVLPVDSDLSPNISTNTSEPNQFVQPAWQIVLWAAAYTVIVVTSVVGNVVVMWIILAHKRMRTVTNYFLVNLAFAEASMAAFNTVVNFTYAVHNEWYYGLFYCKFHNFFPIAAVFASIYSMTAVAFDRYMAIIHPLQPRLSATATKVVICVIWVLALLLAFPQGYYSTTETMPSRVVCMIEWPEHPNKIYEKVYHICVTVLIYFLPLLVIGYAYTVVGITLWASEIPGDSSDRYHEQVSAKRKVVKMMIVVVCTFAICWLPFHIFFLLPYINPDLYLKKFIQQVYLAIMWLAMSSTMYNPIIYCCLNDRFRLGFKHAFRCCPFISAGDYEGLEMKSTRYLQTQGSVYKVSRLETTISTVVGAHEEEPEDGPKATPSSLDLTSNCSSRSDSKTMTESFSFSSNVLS

One data set has as its target NK1 receptor (Homo sapiens, UniProt P25103). The following applies: Table I compounds; cited from earlier work.
Take `C[C@@H](OC[C@@]1(c2ccccc2)CCC(C#N)(N2CCOC2=O)CN1)c1cc(C(F)(F)F)cc(C(F)(F)F)c1` (stereo partly drawn) [Compound 2]: the Ki was 0.12 nM.
For the molecule `C[C@@H](OC[C@@]1(c2ccccc2)CCC(C#N)(N2CCC2=O)CN1)c1cc(C(F)(F)F)cc(C(F)(F)F)c1` (stereo partly drawn) [Compound 9], the inhibition constant Ki is 0.18 nM.
Consider `C[C@@H](OC[C@@]1(c2ccccc2)CCC(C(N)=O)(n2cnnc2)CN1)c1cc(C(F)(F)F)cc(C(F)(F)F)c1` (stereo partly drawn) [Compound 10], for which the Ki is 0.1 nM.
Turning to `C[C@@H](OC[C@@]1(c2ccccc2)CCC(CO)(n2cnnc2)CN1)c1cc(C(F)(F)F)cc(C(F)(F)F)c1` (stereo partly drawn) [Compound 12], the Ki was 0.05 nM.
`C[C@@H](OC[C@@]1(c2ccccc2)CC[C@](CNS(C)(=O)=O)(n2cn[nH]c2=O)CN1)c1cc(C(F)(F)F)cc(C(F)(F)F)c1` [Compound 15]: the inhibition constant Ki was 0.13 nM.
Regarding `CCC(=O)C1(n2cn[nH]c2=O)CC[C@@](CO[C@H](C)c2cc(C(F)(F)F)cc(C(F)(F)F)c2)(c2ccccc2)NC1` (stereo partly drawn) [Compound 19], the Ki is 0.1 nM.
`C[C@@H](OC[C@@]1(c2ccccc2)CCC(CO)(n2cn[nH]c2=O)CN1)c1cc(C(F)(F)F)cc(C(F)(F)F)c1` (stereo partly drawn) [Compound 23]: the Ki was 0.12 nM.
Take `CC(=NO)C1(n2cn[nH]c2=O)CCC(COC(C)c2cc(C(F)(F)F)cc(C(F)(F)F)c2)(c2ccccc2)NC1` (stereo not drawn) [Compound 54]: the Ki is 0.12 nM.

In the next data set the test system is pruritus. Conditions: several patients with pruritic drug reactions to antineoplastic drugs; cited from earlier work.
Turning to `C[C@@H](O[C@H]1OCCN(Cc2n[nH]c(=O)[nH]2)[C@H]1c1ccc(F)cc1)c1cc(C(F)(F)F)cc(C(F)(F)F)c1` [aprepitant], the “pruritus on the visual analogue scale (VAS)” value is “decrease in pruritus on the visual analogue scale”.
